Data set [1] in a line: log D by shake flask method (n-octanol / PBS pH 7.4). In kind it is physicochemical. The method, then: The log D values were determined by traditional shake flask method. Each measurement was performed in duplicate as follows. First, 20 μM probe solution in 1 mL PBS (pH 7.4) was prepared to which 1 mL of n-octanol was added and mixed thoroughly. The mixture was kept in dark for 3 days for complete equilibrium, and the concentrations of probe in each layer were determined based on the UV absorbance. Log D values were determined based on the equation; log D=log [probe]oct−log [probe]PBS, where [probe]oct and [probe]PBS are the concentrations of the probe in n-octanol and PBS, respectively.

The nature of data set [2]: pKa from absorption spectra in PBS at different pH. It is filed as physicochemical. Conditions: from absorbance at λabs,max versus pH of PBS. The method, then:
UV absorption spectra were taken by adding probe (2 μL of 10 mM stock solution in DMSO) to 998 μL of PBS buffer at different pH values (final probe conc.=20 μM) in quartz cuvette.
The pKa values of probes were determined from the absorption spectra.

The target of data set [3] is T1, VMAT2 (Rattus norvegicus, UniProt Q01827).
T1 construct: host or cells: HEK GnTI- (nonglycosylating) cells stably expressing VMAT2
The data set is described as follows: Fluorescent microscopy probe uptake assay in VMAT2/HEK cells. It is filed as cell-based. Conditions: 20 μM probe; for Uptake pattern in screening with VMAT2/HEK and HEK cells: 30 min, VMAT2/HEK vs HEK cells, with or without 1 μM TBZ or reserpine; for Probe uptake in VMAT2-HEK cells: 30 min incubation. On the procedure:
HEK GNTI^− (nonglycosylating) cell line stably expressing VMAT2 (VMAT2-HEK) and HEK GNU^− cell line stably transected with TetR (HEK) to serve as a control were kindly provided by the laboratory of Robert Edwards at UCSF. Cells were grown in DMEM+Glutamax (Invitrogen #10569) with 10% fetal bovine serum (FBS) (Atlanta Biologicals), 100 U/ml penicillin (Nitrogen), and 100 μg/ml streptomycin (Invitrogen). […] The medium was removed by aspiration, and the cells were washed with PBS (2 mL per well). […] Then, the probe uptake was initiated by adding 0.1 mL of experimental media containing probe (220 μM, prepared from 10 mM stock solution in DMSO, final conc.=20 μM in the uptake assay). After incubating at 37° C. for 30 minutes, the media was removed by aspiration, and the cells were washed with PBS (2 mL per well) and treated with probe-free experimental media. Fluorescence images were taken by using Leica FW 4000 equipped with Chroma custom filter cube (ex=350/50 nm, em=460/50 nm) and Hamamatsu digital camera C4742-95. The fluorescent images and bright field images were acquired for 2000 ms and 37 ms, respectively. All images were adjusted using the same contrast and brightness level using Images J (National Institute of Health).

The test system of data set [4] is HEK cells. The data set is described as follows: Fluorescent microscopy probe uptake in control (non-transfected) HEK cells. In kind it is cell-based, human. Conditions: 20 μM probe, 30 min incubation. On the procedure: HEK GNTI^− (nonglycosylating) cell line stably expressing VMAT2 (VMAT2-HEK) and HEK GNU^− cell line stably transected with TetR (HEK) to serve as a control were kindly provided by the laboratory of Robert Edwards at UCSF. Cells were grown in DMEM+Glutamax (Invitrogen #10569) with 10% fetal bovine serum (FBS) (Atlanta Biologicals), 100 U/ml penicillin (Nitrogen), and 100 μg/ml streptomycin (Invitrogen). […] After 5 days, the cells looked fibroblastic and had reached ˜70% confluence. The medium was removed by aspiration, and the cells were washed with PBS (2 mL per well). […] Then, the probe uptake was initiated by adding 0.1 mL of experimental media containing probe (220 μM, prepared from 10 mM stock solution in DMSO, final conc.=20 μM in the uptake assay). After incubating at 37° C. for 30 minutes, the media was removed by aspiration, and the cells were washed with PBS (2 mL per well) and treated with probe-free experimental media. Fluorescence images were taken by using Leica FW 4000 equipped with Chroma custom filter cube (ex=350/50 nm, em=460/50 nm) and Hamamatsu digital camera C4742-95. The fluorescent images and bright field images were acquired for 2000 ms and 37 ms, respectively. All images were adjusted using the same contrast and brightness level using Images J (National Institute of Health).

For data set [5], the target named is T2, VMAT1 (Rattus norvegicus, UniProt Q01818).
T2 construct: PC-12 cells express mostly VMAT1 on their secretory large dense core vesicles (LDCVs); host or cells: PC-12 cells
T2 sequence (Q01818 1-521): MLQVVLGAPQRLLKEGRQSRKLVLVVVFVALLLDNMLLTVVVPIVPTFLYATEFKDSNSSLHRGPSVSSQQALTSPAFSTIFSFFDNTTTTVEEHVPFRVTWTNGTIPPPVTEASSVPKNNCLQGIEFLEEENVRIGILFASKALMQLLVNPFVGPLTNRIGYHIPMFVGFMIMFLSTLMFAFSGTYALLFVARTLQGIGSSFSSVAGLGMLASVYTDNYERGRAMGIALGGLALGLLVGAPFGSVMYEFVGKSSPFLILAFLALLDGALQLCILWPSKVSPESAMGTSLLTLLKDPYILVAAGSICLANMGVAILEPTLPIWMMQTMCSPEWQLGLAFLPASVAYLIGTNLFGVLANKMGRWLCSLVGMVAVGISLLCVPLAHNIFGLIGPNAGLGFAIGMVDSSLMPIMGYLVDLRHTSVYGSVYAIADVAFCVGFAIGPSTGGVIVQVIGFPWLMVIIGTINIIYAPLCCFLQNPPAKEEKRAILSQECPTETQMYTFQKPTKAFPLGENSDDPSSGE
The data set is described as follows: Fluorescent microscopy uptake of Mini202 in PC-12 cells. It is filed as cell-based. The method, then: PC-12 cells were purchased and maintained according to the protocols provided by American Type Culture Collection (ATCC, CRL-1721). Among the two variations of PC-12 provided by ATCC, the one displaying loosely adherent (with no PDL coating) and multicell-aggregating phenotype was used. PC-12 cells were grown in RPMI-1640 (Invitrogen, #11875) with 10% horse serum (Invitrogen, #16050-114), 5% fetal bovine serum (FBS) (Atlanta Biologicals), 100 U/ml penicillin (Invitrogen), and 100 μg/ml streptomycin (Invitrogen). […] After 6 days when the cells get ˜70% confluent, the medium was removed by aspiration, and the cells were washed with PBS (2 mL per well). […] Then, the probe uptake was initiated by adding 0.1 mL of experimental media containing Mini202 (220 μM, prepared from 10 mM stock solution in DMSO, final conc.=20 μM in the uptake assay) to the cells. After incubating the cells at 37° C. for 1 hour, the medium was removed by aspiration, and cells were washed with PBS (2 mL per well) and treated with dye-free experimental media. Fluorescence images were taken by using Leica FW 4000 equipped with Chroma custom filter cube (ex=350/50 nm, em=460/50 nm) and Hamamatsu digital camera C4742-95. The fluorescent images and bright field images were acquired for 2000 ms and 37 ms, respectively. […]

The nature of data set [6]: Photostability of probe in fluorescence microscopy.
Data set [7] in a line: Two-photon ratiometric pH measurement of secretory vesicles (LDCVs) in PC-12 cells.
The subject of data set [8] is VMAT2-HEK cells. The experiment in a line: Chloroquine-induced Mini202 redistribution in VMAT2-HEK cells. In kind it is cell-based, human. The conditions noted are these: chloroquine 300 μM, 3 min, VMAT2-HEK cells labeled with Mini202. On the procedure: For the chloroquine-induced Mini202 redistribution experiment, after probe loading and cell washing with PBS, 1 mL of experimental media containing 300 μM chloroquine was added to the cells at RT for 3 minutes, after which time fluorescent images were taken by the same procedure described above.

Data set [9] relates to LDCVs in PC-12 cells. The data set is described as follows: Two-photon ratiometric pH measurement of secretory vesicles (LDCVs) in PC-12 cells. The conditions noted are these: PC-12 cells loaded with Mini202, 100 μM methamphetamine, 5 minutes, RT.
Where [10] appears, read: n-octanol/PBS, pH 7.4, n-octanol / PBS pH 7.4, 20 μM probe.
Where [11] appears, read: PBS buffer at different pH values, read-out: pKa.
The mark [12] stands for this setting: n-octanol / PBS pH 7.4, 20 μM probe.

Molecules are shown by their SMILES. Where “and” joins values, the source holds several entries; their conditions need not be identical. Identical values can stand only once. Entries after “also recorded” stand apart in the source; their conditions may differ.

T1 sequence (Q01827 whole entry): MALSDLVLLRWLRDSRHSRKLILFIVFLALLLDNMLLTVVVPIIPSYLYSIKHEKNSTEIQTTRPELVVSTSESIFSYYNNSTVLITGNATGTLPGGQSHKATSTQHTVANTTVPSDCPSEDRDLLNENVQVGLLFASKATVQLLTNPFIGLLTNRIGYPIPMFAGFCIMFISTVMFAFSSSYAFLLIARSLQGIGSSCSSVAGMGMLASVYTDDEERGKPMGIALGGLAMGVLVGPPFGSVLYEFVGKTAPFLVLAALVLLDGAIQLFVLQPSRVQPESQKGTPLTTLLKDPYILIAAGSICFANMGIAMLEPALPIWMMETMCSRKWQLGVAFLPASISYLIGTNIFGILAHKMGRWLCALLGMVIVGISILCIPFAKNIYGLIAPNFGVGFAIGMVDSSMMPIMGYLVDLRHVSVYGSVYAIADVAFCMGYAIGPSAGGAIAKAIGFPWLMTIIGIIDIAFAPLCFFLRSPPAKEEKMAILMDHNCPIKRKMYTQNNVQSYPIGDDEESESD

For the compound `NCCc1cc(=O)oc2cc(O)ccc12` [Mini101], the logD (commonly the decadic logarithm of the distribution of all forms, ionised or not, between an organic phase and buffer at a given pH) at 3 days in data set [1] (setting [10]) was -0.94. Besides, the figures for the pKa in [2] (setting [11]) and in data set [2] were 7.2 and 7.24, respectively.

Take `NCCc1cc(=O)oc2cc(O)c(Cl)cc12` [Mini102]: the pH-dependent lipophilicity (logD) at 3 days in [1] (setting [10]) is -1.45. Also, the pKa (commonly the pH at which an ionisable group is half protonated) in data set [2] (setting [11]) is 5.8; in data set [2], 5.77.

The compound `NCCc1cc(=O)oc2cc(O)c(F)cc12` [Mini103] had a pH-dependent lipophilicity (logD) at 3 days in [1] (setting [10]) of -1.98. Also, the pKa in [2] (setting [11]) was determined as 5.95.

For `CC(C)(C)c1cc2c(CCN)cc(=O)oc2cc1O` [Mini104], the logD at 3 days in data set [1] (setting [10]) is 0.89. The pKa in data set [2] (setting [11]) amounted to 7.94. Further, in data set [3], the “Uptake pattern in screening with VMAT2/HEK and HEK cells” value is “non-selective uptake”.

The compound `CC(C)(C)CC(C)(C)c1cc2c(CCN)cc(=O)oc2cc1O` [Mini105] came in with a logD at 3 days in data set [1] (setting [12]) of 1.3. In addition, the pKa in data set [2] (setting [11]) came out at 8.49. For the same compound, the “Uptake pattern in screening with VMAT2/HEK and HEK cells” value in data set [3] is reported as “non-selective uptake”.

On to `NCCc1cc(=O)oc2c(Cc3ccccc3)c(O)c(F)cc12` [Mini106], for which the logD at 3 days in data set [1] (setting [12]) worked out at 0.18. The pKa in data set [2] (setting [11]) worked out at 6.09. In data set [3], the “Uptake pattern in screening with VMAT2/HEK and HEK cells” value is on record as “VMAT2 substrates”.

Compound `NCCc1cc2ccc(O)cc2oc1=O` [Mini201] showed a pH-dependent lipophilicity (logD) at 3 days in data set [1] (setting [10]) of -1.01. For the same compound, in data set [2] (setting [11]), the pKa was 7.6. In addition, the “Uptake pattern in screening with VMAT2/HEK and HEK cells” value in data set [3] is “VMAT2 substrates”.

As for `NCCc1cc2cc(Cl)c(O)cc2oc1=O` [Mini202], the “LogD (at pH 7.4)” value in [1] (setting [12]) was −1.5 and −1.42. The pKa in data set [2] (setting [11]) is 6.1; in data set [2], 6.06; in data set [7] it was 5.93 ± 0.04. The “Uptake pattern in screening with VMAT2/HEK and HEK cells” value in [3] is “VMAT2 substrates”. For the same compound, the “Probe uptake in VMAT2-HEK cells” value in data set [3] is “highest uptake; also recorded: punctuate fluorescence patterns”; in [3] (listed as Mini202.TFA) it was “punctuate uptake in a VMAT2-dependent manner; also recorded: fluorescent puncta”. Besides, the entries for the “Probe uptake in non-transfected HEK cells” value in [4] and in data set [4] (listed as Mini202.TFA) were “No uptake” and “no uptake”, respectively. Moreover, the “Mini202 uptake / labeling in PC-12 cells” value in data set [5] (20 μM, 1 h) is reported as “fluorescent puncta; also recorded: VMAT1 substrate”. Moreover, the Photostability entry in data set [6] is recorded as “photostable”.

In turn, `NCCC(=O)c1cc2ccc(O)cc2oc1=O` [Mini301] displayed a logD at 3 days in [1] (setting [12]) of 0.14. In data set [2] (setting [11]), the pKa turned out to be 7. Besides, the “Uptake pattern in screening with VMAT2/HEK and HEK cells” value in data set [3] is listed as “no uptake in either cell lines”.

As to `NCCC(=O)c1cc2cc(Cl)c(O)cc2oc1=O` [Mini302], the logD at 3 days in data set [1] (setting [12]) turned out to be 0.24. The pKa in [2] (setting [11]) was determined as 4.68. Also, the “Uptake pattern in screening with VMAT2/HEK and HEK cells” value in data set [3] was “no uptake in either cell lines”.

The compound `NCCc1cc2c(ccc3ccc(O)cc32)oc1=O` [Mini401] had a logD at 3 days in data set [1] (setting [12]) of 0.86. Further, the pKa in data set [2] (setting [11]) is 9.36. Also, the “Uptake pattern in screening with VMAT2/HEK and HEK cells” value in data set [3] was “non-selective uptake”.

Take `CCN(CC)CCCC(C)Nc1ccnc2cc(Cl)ccc12` (centres unmarked) [chloroquine]: the “Redistribution of Mini202 from acidic vesicles” value in data set [8] is given as “diffusion of the punctuate fluorescent pattern; also recorded: redistribution of Mini202 from the acidic vesicles to cytosol”.

For the compound `CN[C@@H](C)Cc1ccccc1` [methamphetamine], in [9], the “emission ratio (I760/I692) after drug exposure” value is 1.19; the “vesicular pH in PC-12 cells after drug exposure” value is 6.36 and 6.4.

For `COC(=O)[C@H]1[C@H]2C[C@@H]3c4[nH]c5cc(OC)ccc5c4CCN3C[C@H]2C[C@@H](OC(=O)c2cc(OC)c(OC)c(OC)c2)[C@@H]1OC` [reserpine, reference compound], in [5] (reserpine 1 μM, 1 h pre-incubation, then 20 μM Mini202 1 h), the “Effect of VMAT1 inhibitor on Mini202 uptake in PC-12 cells” value is listed as “no detectable labeling; also recorded: completely inhibited”.

The record behind these values is patent publication US9075014B2, “pH-responsive fluorescent false neurotransmitters and their use” (THE TRUSTEES OF COLUMBIA UNIVERSITY IN THE CITY OF NEW YORK, priority 2011, dated 2015).
